# Patent US7683061B2, “Triazine dimers for the treatment of autoimmune diseases” (ProMetic BioSciences Inc., priority 2003, dated 2010)
# Like-named read-outs stand apart in the source and are kept apart here.
# Key:
# [1] = system: TNFα-induced apoptosis, WEHI-13VAR cells; experiment: TNFα induced apoptosis in WEHI-13VAR cells (MTT); format: cell-based, murine; settings: Mus musculus; for inhibition at 10 µM: 1 × 10^−5M; for inhibition at 20 µM: 2 × 10^−5M; for inhibition at 40 µM: 4 × 10^−5M; for inhibition at 5 µM: 5 × 10^−6M
# Protocol: Effect of compounds on TNFα-induced apoptosis was measured by a standard biological assay using WEHI-13VAR cells. These cells undergo apoptosis when they are incubated in the presence of TNFα and actinomycin D. 2×10^4 WEHI-13VAR cells were incubated in RPMI supplemented with 1% sodium pyruvate and 10% FBS, overnight at 37° C. for cell adherence. The cells were then cultured in the presence of 1 μg/mL of actinomycin D (to inhibit protein synthesis) and 0.04 nM TNFα with or without compounds at 37° C. After 16-24 h, 50 μL of a solution of 2 mg/mL of MTT was added to each well and the plate was then incubated for 4 h at 37° C. Only viable cells metabolize MTT to form formazan salt, which is detectable by the measurement of absorbance at 570 nm. After the incubation, the plate was inverted to remove medium and dead cells. 150 μL DMSO was added to each well to stop the reaction and solubilize the formazan salt. Optical density was read on a EL 800, universal Microplate reader (Bio-Tek). A decrease in the optical density is direct evidence of cell apoptosis induced by TNFα. Compounds were also compared to the activity of an anti-TNFα neutralizing antibody.
# [2] = system: TNFα production, J774A-1 cells; experiment: LPS-induced TNFα production in J774A-1 cells (ELISA); format: cell-based; settings: Mus musculus, J774.A1, 24 h, read-out: IC50 (μM), inhibition of TNFα released by LPS induction
# Protocol: Effect of compounds on TNFα production was measured by ELISA using J774-1 cells stimulated by LPS. J774-1 cells were cultured in the presence or absence of LPS and compound. Cells were cultured at 37° C. for 24 h and thereafter the supernatants were collected for the determination of the concentration of TNFα by ELISA as recommended by the manufacturer (BD Biosciences). Data was analyzed in Microsoft Excel and the concentration of compound which inhibits 50% of TNFα production (IC50) was calculated using Prism software.
# [3] = molecular target: T1, Fc portion of human IgG (binding of protein A to human IgG); experiment: Competitive protein A binding ELISA; settings: Table 1
# T1 construct: fused on or other part: Horseradish peroxidase chemically conjugated to the IgG (HRP-IgG)
# Protocol: As described above, this assay evaluates the ability of the exemplified compounds to mimic protein A. Such compounds can bind to the Fc portion of human IgG as ascertained by the inhibition of binding of protein A to human IgG. The competitive protein A binding ELISA assay was performed on a 96-well plate Maxisorp surface to enhance the binding of protein A to the bottom of the plate. The wells were coated with 100 μL of protein A (0.8 μg) and incubated overnight at 4° C. After incubation, unbound protein A was removed by three washes with phosphate buffer saline (PBS). The plate was then incubated with 100 μL/well of a 2% solution of bovine serum albumin (BSA) for 1 h at 37° C. to block non specific protein binding. After incubation, the plate was washed to times with PBS. 50 μL of compound or protein A, diluted in PBS or PBS-20% DMSO at appropriate concentration, were added to the wells followed by addition of 50 μL of peroxidase-conjugated human IgG (HRP-IgG). After 1 h incubation at 37° C., the plate was washed free times with PBS to remove unbound HRP-IgG. Bound HRP-IgG was detected by incubation with 100 μL of 2,2′-Azino-di[3-ethylbenzothiazoline sulfonate]diammonium salt crystals (ABTS) solution for 20 min in the dark at room temperature. The plate was then read at 405 nm on a EL 800, universal Microplate reader (Bio-Tek). Data was analyzed in Microsoft Excel and the concentration of compound which inhibits 50% binding of protein A (IC50) was calculated using Prism software.
# Table 1 represents the IC50 of compounds tested in the competitive protein A binding ELISA assay, which consists of a side-by-side analysis in PBS and PBS-20% DMSO. DMSO was used to increase the solubility of some of the compounds.
# [4] = molecular target: TNFα / p75 TNFα receptor (CD120b) (Homo sapiens, UniProt P01375); experiment: Binding ELISA: TNF-α binding to plastic coated TNF-R2
# Protocol: (§1) Compounds were tested for their ability to bind to TNFα or inhibit the interaction of TNFα with its respective receptors; p55 and p75 TNFα receptor. Three binding ELISA assays were undertaken as described by Mancini et al. Biochemical Pharmacology 58, 851-859 (1999). TNFα or receptor (1 μg/mL) was coated on a 96-well plate Maxisorp, overnight at 4° C. After incubation, unbound TNFα or p55 TNFα receptor or p75 TNFα receptor was removed and the plate washed three times with PBS. The plate was then incubated with 100 μL/well of a 2% BSA solution for 1 h at 37° C. to block non specific protein binding. After incubation, the plate was washed three times with PBS. Biotinylated recombinant human TNFα p55 or p75 receptor or biotinylated recombinant human TNFα was added to the wells in the presence or absence of compounds. The plate was incubated for 1 h at 37° C. After incubation, the plate was washed three times with PBS to remove unbound labeled p55 or p75 receptor or recombinant human TNFα. 100 μL of avidin-HRP (diluted 1/2000 in PBS-0.1% BSA) was added to each well and incubated 1 h at 37° C. Bound p55 or p75 receptor or recombinant human TNFα was detected by the addition of 200 μL of 3,3′,5,5′-tetramethylbenzidine (TMB) per well for 15 min. The plate was then read at 655 nm on a EL 800 universal Microplate reader (Bio-Tek, Mississauga, Canada). Data was analyzed in Microsoft Excel and recorded as the percentage of inhibition of p55 or p75 binding to TNFα or TNFα binding to RI (p55) or RII (p75).
# [5] = molecular target: TNFα / p55 TNFα receptor (CD120a) (Homo sapiens, UniProt P01375); experiment: Binding ELISA: TNF-α binding to plastic coated TNF-R1
# Protocol: as §1
# [6] = PBS-20% DMSO, read-out: IC50 (μM): Assay in PBS-20% DMSO
# [7] = PBS, read-out: IC50 (μM): Assay in PBS
# Sequence of TNFα / p75 TNFα receptor (CD120b) (P01375 77-233 limits assumed): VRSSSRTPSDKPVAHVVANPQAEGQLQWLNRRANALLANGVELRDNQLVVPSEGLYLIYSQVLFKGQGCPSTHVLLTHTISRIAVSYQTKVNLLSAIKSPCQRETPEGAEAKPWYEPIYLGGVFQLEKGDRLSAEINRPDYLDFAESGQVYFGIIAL
# Sequence of TNFα / p55 TNFα receptor (CD120a) (P01375 77-233 limits assumed): as above
Compound,IC50 [2] [µM],"IC50 [3, 6] [µM]","IC50 [3, 7] [µM]",other results
COC(=O)c1ccccc1Nc1nc(NCCNc2nc(NCCc3ccc(O)cc3)nc(Nc3ccccc3C(=O)OC)n2)nc(NCCc2ccc(O)cc2)n1 [Compound 2],,,,inhibition at 10 µM [1]: 43.7%; inhibition at 20 µM [1]: 48.4%; inhibition at 40 µM [1]: 48.3%; inhibition at 5 µM [1]: 37.3%
COC(=O)c1ccccc1Nc1nc(NCCNc2nc(N)nc(NCCc3ccc(O)cc3)n2)nc(NCCc2ccc(O)cc2)n1 [Compound 3],28,,,inhibition at 10 µM [1]: 32.7%; inhibition at 20 µM [1]: 44.6%; inhibition at 40 µM [1]: 33.9%; inhibition at 5 µM [1]: 0.5%
Oc1ccc(CCNc2nc(NCCNc3nc(NCCc4ccc(O)cc4)nc(Sc4ccccc4)n3)nc(Sc3ccccc3)n2)cc1 [Compound 11b],23.3,45,,
CN(C)CCCC(=O)Oc1ccc(CCNc2nc(NCCNc3nc(NCCc4ccc(OC(=O)CCCN(C)C)cc4)nc(Nc4ccccc4)n3)nc(Nc3ccccc3)n2)cc1 [Compound 12],3.4,39,23,inhibition at 100 µM ([4]; 10^−4 M): 3.8%; inhibition at 10 µM ([4]; 10^−5 M): -30.4%; inhibition at 10 µM [1]: -21.1%; inhibition at 20 µM [1]: -28.4%; inhibition at 40 µM [1]: -30%; inhibition at 5 µM [1]: 36.9%; inhibition at 100 µM ([5]; 10^−4 M): -8.4%; inhibition at 10 µM ([5]; 10^−5 M): -35.7%
NCCNc1nc(NCCc2ccc(Oc3nc(NCCc4ccc(O)cc4)nc(Nc4ccccc4)n3)cc2)nc(Nc2ccccc2)n1 [Compound 13],13.4,70,33,
CC(=O)NCCNc1nc(NCCc2ccc(Nc3nc(NCCc4ccc(O)cc4)nc(Nc4ccccc4)n3)cc2)nc(Nc2ccccc2)n1 [Compound 15],14.2,35,,
NCCCCNc1nc(NCCc2ccc(Nc3nc(NCCc4ccc(O)cc4)nc(Nc4ccccc4)n3)cc2)nc(Nc2ccccc2)n1 [Compound 16],13.6,55,36,
Nc1ccc(CCNc2nc(Nc3ccccc3)nc(Nc3ccc(CCNc4nc(NCCO)nc(Nc5ccccc5)n4)cc3)n2)cc1 [Compound 17],57.1,12,53,
Oc1ccc(CCNc2nc(NCCc3ccc(Nc4nc(Nc5ccccc5)nc(N5CCNCC5)n4)cc3)nc(Nc3ccccc3)n2)cc1 [Compound 18],10.2,43,26,
OCCNc1nc(NCCc2ccc(Oc3nc(NCCc4ccc(O)cc4)nc(Nc4ccccc4)n3)cc2)nc(Nc2ccccc2)n1 [Compound 21],4.8,,,
COc1ccccc1Nc1nc(NCCN)nc(NCCc2ccc(Nc3nc(NCCc4ccc(O)cc4)nc(Nc4ccccc4)n3)cc2)n1 [Compound 22],62.1,,,
COc1ccccc1Nc1nc(NCCCCN)nc(NCCc2ccc(Oc3nc(NCCc4ccc(O)cc4)nc(Nc4ccccc4)n3)cc2)n1 [Compound 23],16.5,,,
NCCCNc1nc(NCCc2ccc(Nc3nc(NCCc4ccc(O)cc4)nc(Nc4ccccc4)n3)cc2)nc(Nc2ccccc2)n1 [Compound 24],11.5,,,
OCCNc1nc(NCC2CCN(c3nc(NCCO)nc(Nc4ccccc4)n3)CC2)nc(Nc2ccccc2)n1 [Compound 26],,,,inhibition at 10 µM [1]: 27.3%; inhibition at 20 µM [1]: 38%; inhibition at 40 µM [1]: -11.5%; inhibition at 5 µM [1]: 9.7%
Oc1ccc(CCNc2nc(Nc3ccccc3)nc(Nc3ccc(Nc4nc(NCCc5ccc(O)cc5)nc(Nc5ccccc5)n4)cc3)n2)cc1 [Compound 28],28.8,35,,
Nc1ccc(CCNc2nc(Nc3ccccc3)nc(N3CCN(c4nc(NCCO)nc(Nc5ccccc5)n4)CC3)n2)cc1 [Compound 33],20.6,18,18,
Oc1ccc(CCNc2nc(Nc3ccccc3)nc(Nc3cccc(Nc4nc(NCCc5ccc(O)cc5)nc(Nc5ccccc5)n4)c3)n2)cc1 [Compound 38],9.5,,,
NCCNc1nc(NCc2cccc(CNc3nc(NCCc4ccc(O)cc4)nc(Nc4ccccc4)n3)c2)nc(Nc2ccccc2)n1 [Compound 40],87.2,,,
Nc1cccc(Nc2nc(NCCO)nc(Nc3ccc(CNc4nc(Nc5cccc(N)c5)nc(Nc5cccc(N)c5)n4)cc3)n2)c1 [Compound 42],,0.05,0.05,inhibition at 10 µM [1]: -1.7%; inhibition at 20 µM [1]: 0.5%; inhibition at 40 µM [1]: 30.4%; inhibition at 5 µM [1]: -3.1%
Nc1cccc(CNc2nc(Nc3ccc(CNc4nc(N)nc(Nc5cccc(N)c5)n4)cc3)nc(Nc3cccc(N)c3)n2)c1 [Compound 45],,0.08,0.1,inhibition at 10 µM [1]: 2.9%; inhibition at 20 µM [1]: 4.1%; inhibition at 40 µM [1]: 32.9%; inhibition at 5 µM [1]: -0.3%
Nc1cccc(Nc2nc(Nc3cccc(Nc4nc(Nc5cccc(N)c5)nc(NC(CO)CO)n4)c3)nc(NC(CO)CO)n2)c1 [Compound 50],,1,0.4,
Nc1cccc(Nc2nc(N)nc(Nc3cccc(Nc4nc(N)nc(Nc5cccc(N)c5)n4)c3)n2)c1 [Compound 51],,6,0.6,
